Test results as given in patent publication US9096832B2, “Differentiation of human embryonic stem cells” (LifeScan, Inc., priority 2007, dated 2015).

Test system: H9 embryonic stem cells
Assay: Microarray analysis of definitive endoderm stage cells on […] or MEFs +/- Wnt-3a (Table VI)
Format: cell-based, human
Details: low serum, on MEFS

Substance: Activin A: activin A (a member of the TGFβ superfamily), R&D Systems; 'w/o wnt' in Table VII = 100 ng/ml Activin A without Wnt3a
- Intensity (log): Homo sapiens haptoglobin-related protein (HPR), mRNA: −1.196
- Intensity (log): Homo sapiens homeobox protein goosecoid mRNA, complete cds: 1.894
- Intensity (log): Homo sapiens hypothetical protein FLJ10718 (FLJ10718), mRNA: 5.552
- Intensity (log): Homo sapiens hypothetical protein FLJ10970 (FLJ10970), mRNA: 3.02
- Intensity (log): Homo sapiens hypothetical protein FLJ11316 (FLJ11316), mRNA: 0.7553
- Intensity (log): Homo sapiens hypothetical protein FLJ22252 similar to SRY-box containing gene 17 (FLJ22252), mRNA: 4.5979
- Intensity (log): Homo sapiens lumican (LUM), mRNA: 0.9488
- Intensity (log): Homo sapiens mRNA for GATA-6, complete cds: 5.343
- Intensity (log): Homo sapiens mRNA for KIAA1409 protein, partial cds: −1.032
- Intensity (log): Homo sapiens mRNA; cDNA DKFZp434D0818 (from clone DKFZp434D0818): −0.3056
- Intensity (log): Homo sapiens mRNA; cDNA DKFZp586J0624 (from clone DKFZp586J0624); complete cds: 3.699
- Intensity (log): Homo sapiens presenilin stabilization factor b (PSF) mRNA, complete cds; alternatively spliced: 0.5675
- Intensity (log): Homo sapiens reserved (KCNK12), mRNA: 3.78
- Intensity (log): Homo sapiens retinoid X receptor, gamma (RXRG), mRNA: −0.3204
- Intensity (log): Homo sapiens sema domain, immunoglobulin domain (Ig), short basic domain, secreted, (semaphorin) 3E (SEMA3E), mRNA: 1.276
- Intensity (log): Homo sapiens sema domain, seven thrombospondin repeats (type 1 and type 1-like), transmembrane domain (TM) and short cytoplasmic domain, (semaphorin) 5A (SEMA5A), mRNA: 1.487
- Intensity (log): Homo sapiens solute carrier family 21 (prostaglandin transporter), member 2 (SLC21A2), mRNA: 2.433
- Intensity (log): Homo sapiens type VI collagen alpha 2 chain precursor (COL6A2) mRNA, complete cds, alternatively spliced: 2.845
- Intensity (log): Homo sapiens, alpha-1 (VI) collagen: −2.269
- Intensity (log): Homo sapiens, clone MGC: 4655, mRNA, complete cds: 2.476
- Intensity (log): Human (clone 8B1) Br-cadherin mRNA, complete cds: −1.026
- Intensity (log): Human (clone HSY3RR) neuropeptide Y receptor (NPYR) mRNA, complete cds: 5.48
- Intensity (log): Human DNA sequence from clone RP1-181C24 on chromosome 6p11.1-12.2. Contains the 3 end of the BMP5 gene for bone morphogenetic protein 5, ESTs, STSs and GSSs: −0.3731
- Intensity (log): Human Fritz mRNA, complete cds: 3.915
- Intensity (log): Human dipeptidyl peptidase IV (CD26) mRNA, complete cds: −1.256
- Intensity (log): Human glycophorin HeP2 mRNA, partial cds: 0.2335
- Intensity (log): Human link protein mRNA, complete cds: −1.263
- Intensity (log): Human mRNA for alpha-1 type II collagen: −0.3802
- Intensity (log): Human mRNA for apolipoprotein AI (apo AI): 2.497
- Intensity (log): Human prostatic secretory protein 57 mRNA, complete cds: −0.4077
- Intensity (log): KIAA1462 protein: 0.4371
- Intensity (log): MCP-1 = monocyte chemotactic protein (human, aortic endothelial cells, mRNA, 661 nt): 2.955
- Intensity (log): Rho GDP dissociation inhibitor (GDI) alpha: −2.582
- Intensity (log): WAS protein family, member 2: −1.06
- Intensity (log): collagen, type IX, alpha 2: 2.935
- Intensity (log): collagen, type VI, alpha 1: 0.6042
- Intensity (log): hepatocyte nuclear factor 4, alpha: 0.4452
- Intensity (log): homeo box HB9: 1.631
- Intensity (log): hypothetical protein FLJ21032: 2.618
- Intensity (log): hypothetical protein FLJ23091: 3.78
- Intensity (log): microfibrillar-associated protein 4: −0.6009
- Intensity (log): myristoylated alanine-rich protein kinase C substrate (MARCKS, 80K-L): 0.3357
- Intensity (log): neuropilin 1: −1.9667
- Intensity (log): noggin: 1.33
- Intensity (log): splicing factor, arginine serine-rich 5: 4.272
- Intensity (log): stanniocalcin 1: 6.143
- Intensity (log): ESTs (r13): −4.27
- Intensity (log): ESTs (r16): −2.6475
- Intensity (log): solute carrier family 16 (monocarboxylic acid transporters), member 3 (r20): 0.279
- Intensity (log): Homo sapiens solute carrier family 16 (monocarboxylic acid transporters), member 3 (SLC16A3), mRNA (r30): 1.724
- Intensity (log): ESTs (r49): 0.967
- Intensity (log): glycophorin B (includes Ss blood group) (r50): −0.1297
- Intensity (log): ESTs (r62): −0.2374
- Intensity (log): Homo sapiens HNF-3beta mRNA for hepatocyte nuclear factor-3 beta, complete cds (r66): 2.825
- Intensity (log): ESTs (r81): −2.321
- Intensity (log): ESTs (r92): 0.926
- Intensity (log): ESTs (r98): −2.206
- Intensity (log): ESTs (r108): −1.825
- Intensity (log): Homo sapiens phorbolin-like protein MDS019 (MDS019), mRNA (r121): 2.408
- Intensity (log): ESTs (r129): 0.4204
- Intensity (log): ESTs (r136): 3.522
- Intensity (log): ESTs (r137): 0.761
- Intensity (log): ESTs (r142): 1.433
- Intensity (log): ESTs (r145): 1.0501
- Intensity (log): Cluster Incl. AB028021: Homo sapiens HNF-3beta mRNA for hepatocyte nuclear factor-3 beta, complete cds (r165): 4.117
- Intensity (log): hypothetical protein FLJ23403 (r205): −2.313
- Intensity (log): matrix metalloproteinase 14 (membrane-inserted) (r215): −0.5185
- Intensity (log): Homo sapiens glycophorin B (includes Ss blood group) (GYPB), mRNA (r218): 0.1803
- Intensity (log): ESTs (r234): 3.913
- Intensity (log): ESTs (r240): 3.125
- Intensity (log): ESTs (r241): −0.5703
- Intensity (log): KIAA0878 protein (r250): 4.789
- Intensity (log): ESTs (r260): 4.814
- Intensity (log): Homo sapiens matrix metalloproteinase 14 (membrane-inserted) (MMP14), mRNA (r270): −0.09689
- Intensity (log): ESTs (r278): 0.6202
- Intensity (log): ESTs (r290): 2.657
- Intensity (log): ESTs (r301): 3.372
- Intensity (log): ESTs (r314): −0.2982
- Intensity (log): Homo sapiens hypothetical protein FLJ23403 (FLJ23403), mRNA (r315): −1.004
- Intensity (log): ESTs (r319): −0.1895
- Intensity (log): Homo sapiens KIAA0878 protein (KIAA0878), mRNA (r332): 5.654
- Intensity (log): phorbolin-like protein MDS019 (r340): 0.5035
- Intensity (log): ESTs (r347): 3.749
- Intensity (log): ESTs (r376): 0.8249
- Intensity (log): ESTs (r377): −1.364
